For assay [1], the target named is T1, human β-Secretase (AA 1-AA 460), sBACE-Fc (Homo sapiens, UniProt P56817).
T1 construct: soluble part of the human β-Secretase (AA 1-AA 460) was cloned; Fc domain of IgG1; made in house
Description: TR-FRET assay. Type of assay: biochemical. As to conditions: enzyme 2.7 μg/ml, substrate 100 nM, pH4.5, 15 minutes at r.t. As for the experimental part:
The β-secretase enzyme used in the TR-FRET is prepared as follows:
The cDNA for the soluble part of the human β-Secretase (AA 1-AA 460) was cloned using the ASP2-Fc10-1-IRES-GFP-neoK mammalian expression vector. The gene was fused to the Fc domain of IgG1 (affinity tag) and stably cloned into HEK 293 cells.
The enzyme (truncated form) was diluted to 6 μg/mL (stock 1.3 mg/mL) and the substrate (Europium)[…](Qsy7) to 200 nM (stock 120 μM) in reaction buffer (NaAcetate, is chaps, triton x-100, EDTA pH4.5). The robotic systems Biomek FX and Velocity 11 were used for all liquid handling and the enzyme and substrate solutions were kept on ice until they were placed in the robotic system. Enzyme (9 μA) was added to the plate then 1 μA of compound in dimethylsulphoxide was added, mixed and pre-incubated for 10 minutes. Substrate (10 μA) was then added, mixed and the reaction proceeded for 15 minutes at r.t. The reaction was stopped with the addition of Stop solution (7 μl, NaAcetate, pH 9). The fluorescence of the product was measured on a Victor II plate reader with an excitation wavelength of 340 nm and an emission wavelength of 615 nm. The assay was performed in a Costar 384 well round bottom, low volume, non-binding surface plate (Corning #3676). […] The dimethylsulphoxide control, instead of test compound, defined the 100% activity level and 0% activity was defined by wells lacking enzyme (replaced with reaction buffer).

Assay [2] deals with sAPPβ release, SH-SY5Y cells. The experiment in a line: sAPPβ release assay. Type of assay: cell-based. The settings on record: Homo sapiens, compounds incubated 17 h. How it is done: SH-SY5Y cells were cultured in DMEM/F-12 with Glutamax, 10% FCS and 1% non-essential amino acids and cryopreserved and stored at −140° C. at a concentration of 7.5−9.5×10^6 cells per vial. Thaw cells and seed at a conc. of around 10000 cells/well in DMEM/F-12 with Glutamax, 10% FCS and 1% non-essential amino acids to a 384-well tissue culture treated plate, […] cell susp/well. The cell plates were then incubated for 7-24 h at 37° C., 5% CO2. The cell medium was removed, followed by addition of 30 μL compound diluted in DMEM/F-12 with Glutamax, 10% FCS, 1% non-essential amino acids and 1% PeSt to a final conc. of 1% DMSO. The compounds were incubated with the cells for 17 h (overnight) at 37° C., 5% CO2. Meso Scale Discovery (MSD) plates were used for the detection of sAPPβ release. MSD sAPPβ plates were blocked in 1% BSA in Tris wash buffer (40 μL/well) for 1 h on shake at r.t. and washed 1 time in Tris wash buffer (40 μL/well). 20 μL of medium was transferred to the pre-blocked and washed is MSD sAPPβ microplates, and the cell plates were further used in an ATP assay to measure cytotoxicity. The MSD plates were incubated with shaking at r.t. for 2 h and the media discarded. 10 μL detection antibody was added (1 nM) per well followed by incubation with shaking at r.t. for 2 h and then discarded. 40 μL Read Buffer was added per well and the plates were read in a SECTOR Imager.

T1 sequence (P56817 22-460): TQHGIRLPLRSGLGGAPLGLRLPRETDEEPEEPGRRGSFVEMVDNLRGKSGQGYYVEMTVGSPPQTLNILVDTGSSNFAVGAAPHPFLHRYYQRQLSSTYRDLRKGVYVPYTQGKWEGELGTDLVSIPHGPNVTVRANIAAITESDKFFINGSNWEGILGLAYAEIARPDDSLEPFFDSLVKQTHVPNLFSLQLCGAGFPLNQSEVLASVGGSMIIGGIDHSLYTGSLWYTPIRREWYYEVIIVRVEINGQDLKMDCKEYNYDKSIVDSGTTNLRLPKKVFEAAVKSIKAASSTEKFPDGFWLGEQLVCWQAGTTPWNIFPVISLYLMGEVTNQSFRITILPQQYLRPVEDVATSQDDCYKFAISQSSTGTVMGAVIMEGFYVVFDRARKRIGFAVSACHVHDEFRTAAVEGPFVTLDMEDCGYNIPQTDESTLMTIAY

A word on the IC50: it is the concentration that gives 50% inhibition. Read a low IC50 as greater potency. Take `Cc1cc(C2(c3cccc(-c4cncnc4)c3)N=C(N)c3c(F)cccc32)cn(C)c1=O` (centres unmarked) [Example 14, 5-(3-Amino-4-fluoro-1-(3-(pyrimidin-5-yl)phenyl)-1H-isoindol-1-yl)-1,3-dimethylpyridin-2(1H)-one]: the values for the IC50 in assay [1] and in assay [2] were 58 nM and 11 nM, respectively.
For `Cc1cc(C2(c3cccc(-c4cncc(C#N)c4)c3)N=C(N)c3c(F)cccc32)cn(C(C)C)c1=O` (centres unmarked) [Example 5, 5-(3-(3-Amino-4-fluoro-1-(1-isopropyl-5-methyl-6-oxo-1,6-dihydropyridin-3-yl)-1H-isoindol-1-yl)phenyl)nicotinonitrile], the IC50 amounted to 58 nM in assay [1] and 10 nM in assay [2].
The corresponding values for `Cn1cc(C2(c3cccc(-c4cncc(C#N)c4)c3)N=C(N)c3c(F)cccc32)cc(C(F)(F)F)c1=O` (centres unmarked) [Example 10, 5-(3-(3-Amino-4-fluoro-1-(1-methyl-6-oxo-5-(trifluoromethyl)-1,6-dihydropyridin-3-yl)-1H-isoindol-1-yl)phenyl)nicotinonitrile] are 89 nM and 20 nM.
Consider `CC#Cc1cncc(-c2cc(C3(c4cc(CC)c(=O)n(CC)c4)N=C(N)c4c(F)cccc43)ccn2)c1` (centres unmarked) [Example 16, 5-(3-Amino-4-fluoro-1-(5′-(prop-1-ynyl)-2,3′-bipyridin-4-yl)-1H-isoindol-1-yl)-1,3-diethylpyridin-2(1H)-one], for which the IC50 in assay [1] stood at 59 nM; in assay [2], 1 nM.
For `Cc1cc(C2(c3cccc(-c4cncc(Cl)c4)c3)N=C(N)c3c(F)cccc32)cn(C)c1=O` (centres unmarked) [Example 18, 5-(3-Amino-1-(3-(5-chloropyridin-3-yl)phenyl)-4-fluoro-1H-isoindol-1-yl)-1,3-dimethylpyridin-2(1H)-one] the same measures were 26 nM and 8 nM.
Take `COc1cncc(-c2cccc(C3(c4cc(C(F)(F)F)c(=O)n(C)c4)N=C(N)c4c(F)cccc43)c2)c1` (centres unmarked) [Example 11, 5-(3-Amino-4-fluoro-1-(3-(5-methoxypyridin-3-yl)phenyl)-1H-isoindol-1-yl)-1-methyl-3-(trifluoromethyl)pyridin-2(1H)-one]: the IC50 was determined as 54 nM in assay [1] and 46 nM in assay [2].
As for `Cn1cc(C2(c3cccc(-c4cncc(F)c4)c3)N=C(N)c3c(F)cccc32)cc(C(F)(F)F)c1=O` (centres unmarked) [Example 12, 5-(3-Amino-4-fluoro-1-(3-(5-fluoropyridin-3-yl)phenyl)-1H-isoindol-1-yl)-1-methyl-3-(trifluoromethyl)pyridin-2(1H)-one], the IC50 in assay [1] was determined as 62 nM; in assay [2] it was 8 nM.
Turning to `Cc1cc(C2(c3cccc(-c4cncc(C#N)c4)c3)N=C(N)c3c(F)cccc32)cn(C)c1=O` (centres unmarked) [Example 17, 5-(3-(3-Amino-1-(1,5-dimethyl-6-oxo-1,6-dihydropyridin-3-yl)-4-fluoro-1H-isoindol-1-yl)phenyl)nicotinonitrile], the results for the IC50 in assay [1] and in assay [2] were 66 nM and 17 nM, respectively.
The corresponding values for `CCn1cc(C2(c3cccc(-c4cncc(F)c4)c3)N=C(N)c3c(F)cccc32)cc(C(F)F)c1=O` (centres unmarked) [Example 22, 5-(3-Amino-4-fluoro-1-(3-(5-fluoropyridin-3-yl)phenyl)-1H-isoindol-1-yl)-3-(difluoromethyl)-1-ethylpyridin-2(1H)-one] are 70 nM and 9 nM.
The compound `CC#Cc1cncc(-c2cc(C3(c4cc(C)c(=O)n(CC)c4)N=C(N)c4c(F)cccc43)ccn2)c1` (single isomer, unassigned) [Example 26a, 5-(3-amino-4-fluoro-1-(5′-(prop-1-ynyl)-2,3′-bipyridin-4-yl)-1H-isoindol-1-yl)-1-ethyl-3-methylpyridin-2(1H)-one] showed an IC50 in assay [1] of 8350 nM.
For the compound `CC#Cc1cncc(-c2cc(C3(c4cc(C)c(=O)n(CC)c4)N=C(N)c4c(F)cccc43)ccn2)c1` (centres unmarked) [Example 2, 5-(3-Amino-4-fluoro-1-(5′-(prop-1-ynyl)-2,3′-bipyridin-4-yl)-1H-isoindol-1-yl)-1-ethyl-3-methylpyridin-2(1H)-one], the IC50 in assay [1] turned out to be 57 nM; in assay [2] it was 2 nM.
The corresponding values for `COc1cncc(-c2cccc(C3(c4cc(C)c(=O)n(C)c4)N=C(N)c4c(F)cccc43)c2)c1` (centres unmarked) [Example 20, 5-(3-amino-4-fluoro-1-(3-(5-methoxypyridin-3-yl)phenyl)-1H-isoindol-1-yl)-1,3-dimethylpyridin-2(1H)-one] are 31 nM and 6 nM.
With `Cc1cc(C2(c3cccc(-c4cncc(F)c4)c3)N=C(N)c3c(F)cccc32)cn(C)c1=O` (centres unmarked) [Example 19, 5-(3-Amino-4-fluoro-1-(3-(5-fluoropyridin-3-yl)phenyl)-1H-isoindol-1-yl)-1,3-dimethylpyridin-2(1H)-one], the IC50 worked out at 61 nM in assay [1] and 3 nM in assay [2].
For `Cn1cc(C2(c3cccc(-c4cncnc4)c3)N=C(N)c3c(F)cccc32)cc(C(F)(F)F)c1=O` (centres unmarked) [Example 13, 5-(3-Amino-4-fluoro-1-(3-(pyrimidin-5-yl)phenyl)-1H-isoindol-1-yl)-1-methyl-3-(trifluoromethyl)pyridin-2(1H)-one] the same measures were 81 nM and 24 nM.
The corresponding values for `CCn1cc([C@]2(c3cccc(-c4cncc(C)c4F)c3)N=C(N)c3c(F)cccc32)cc(C)c1=O` [Example 4, (R)-5-(3-Amino-4-fluoro-1-(3-(4-fluoro-5-methylpyridin-3-yl)phenyl)-1H-isoindol-1-yl)-1-ethyl-3-methylpyridin-2(1H)-one] are 51 nM and 55 nM.
On to `Cc1cc(C2(c3ccnc(-c4cncc(Cl)c4)c3)N=C(N)c3c(F)cccc32)cn(C)c1=O` (centres unmarked) [Example 15, 5-(3-Amino-1-(5′-chloro-2,3′-bipyridin-4-yl)-4-fluoro-1H-isoindol-1-yl)-1,3-dimethylpyridin-2(1H)-one], for which the half-maximal inhibitory concentration (IC50) was found to be 104 nM in assay [1] and 14 nM in assay [2].
The corresponding values for `CC#Cc1cccc(-c2cccc([C@@]3(c4cc(C)c(=O)n(CC)c4)N=C(N)c4c(F)cccc43)c2)n1` [Example 24, (R)-5-(3-Amino-4-fluoro-1-(3-(6-(prop-1-ynyl)pyridin-2-yl)phenyl)-1H-isoindol-1-yl)-1-ethyl-3-methylpyridin-2(1H)-one] are 140 nM and 22 nM.
For `Cc1cc(C2(c3cccc(-c4cncc(F)c4)c3)N=C(N)c3c(F)cccc32)cn(C(C)C)c1=O` (centres unmarked) [Example 7, 5-(3-Amino-4-fluoro-1-(3-(5-fluoropyridin-3-yl)phenyl)-1H-isoindol-1-yl)-1-isopropyl-3-methylpyridin-2(1H)-one] the same measures were 38 nM and 4 nM.
